These results are taken from patent US8703796B2, “3H-imidazo [4, 5-B] pyridine-6-carboxamides as anti-inflammatory agents” (Boehringer Ingelheim International GmbH, priority 2008, dated 2014).

Structures can show the parent of a compound that is named as a salt.

For the assay, the target named is T1, recombinant human mPGES-1 (Homo sapiens, UniProt O14684).
T1 construct: made in house; host or cells: Rosetta E. coli (microsomal/membrane fraction)
T1 sequence (O14684 1-152): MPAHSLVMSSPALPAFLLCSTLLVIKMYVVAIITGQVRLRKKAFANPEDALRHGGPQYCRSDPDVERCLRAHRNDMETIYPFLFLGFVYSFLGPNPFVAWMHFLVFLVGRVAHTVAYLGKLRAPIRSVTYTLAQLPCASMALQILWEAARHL
The assay is described as follows: mPGES-1 inhibition, HTRF detection of PGE2. The format is biochemical. On the procedure: Microsomes from Rosetta E. coli bacteria expressing recombinant human mPGES-1 is dissolved in 0.1 M KPi pH 7.4 buffer containing 2.5 mM GSH. 50 μl of the enzyme is subsequently dispensed in a 384-well plate. 0.5 μl of the inhibitor dissolved in DMSO at is thereafter added to each well and incubated for 25 minutes at room temperature. Subsequently, 2 μl of PGH2 dissolved in an appropriate solvent is added to each well and after one minute the acidified stop solution containing FeCl2 is added. 4 μl of the total volume is transferred to a separate plate and diluted 750-fold in two separate steps before HTRF detection of PGE2.
The HTRf detection is performed by the use of a commercially available kit from CisBio essentially according to the manufacturer's protocol. Briefly, 10 μl of the diluted sample is transferred to a white 384-well plate. 5 μl of d2 and 5 μl Eu3+-Cryptate labeled anti-PGE2 is added to each well containing samples by the use of a Multidrop. The plate is covered with a plastic self-adhesive film, centrifuged at 1200 rpm for 1 minute and subsequently stored at +4° C. over night.
After over night incubation the fluorescence is measured by the use of an appropriate microplate reader. The fluorescence of europium cryptate, and d2 are measured using the following excitation and emission wavelength, europium cryptate: λmax^ex=307 nm, λmax^em=620 nm and d2: λmax^ex=620 nm, λmax^em=665 nm), respectively. The extent of the specific FRET is measured as a ratio of the emission intensity at 665 nm vs. that at 620 nm. A standard curve using synthetic PGE2 is used to quantify the amount of PGE2 in unknown samples.
(In TR-FRET formats the signal depends on donor and acceptor labels being close together.)
For the compound `O=C(Nc1ccc(Cl)c(F)c1)c1cnc2[nH]c(Nc3c(Cl)cccc3Cl)nc2c1` [Example 154, 2-(2,6-Dichloro-phenylamino)-3H-imidazo[4,5-b]-pyridine-6-carboxylic acid (4-chloro-3-fluoro-phenyl)-amide], the inhibition at 10 µM came out at 91%.

Take `Cn1c(Nc2c(Cl)cccc2Cl)nc2cc(C(=O)N[C@H]3CC[C@H](C(F)(F)F)CC3)cnc21` [Example 174, 2-(2,6-Dichloro-phenylamino)-3-methyl-3H-imidazo[4,5-b]pyridine-6-carboxylic acid (trans-4-trifluoromethyl-cyclohexyl)-amide]: the inhibition at 10 µM is 99%.

For `COc1nc2c(cc1C(=O)Nc1ccc(Br)cc1)nc(Nc1c(Cl)cccc1Cl)n2C` [Example 377, N-(4-Bromophenyl)-2-(2,6-dichlorophenylamino)-5-methoxy-3-methyl-3H-imidazo[4,5-b]pyridine-6-carboxamide], the inhibition at 10 µM turned out to be 100%.

As for `CC(C)(C)[C@H]1CC[C@H](NC(=O)c2cnc3[nH]c(Nc4c(Cl)cccc4Cl)nc3c2)CC1` [Example 379, N-((1r,4r)-4-tert.-Butylcyclohexyl)-2-(2,6-dichlorophenylamino)-3H-imidazo[4,5-b]pyridine-6-carboxamide], the inhibition at 10 µM amounted to 100%.

As to `COc1nc2c(cc1C(=O)Nc1cc(C(F)(F)F)ccn1)nc(Nc1c(Cl)cccc1Cl)n2C` [Example 386, 2-(2,6-Dichloro-phenylamino)-5-methoxy-3-methyl-N-(4-trifluoromethyl-pyridin-2-yl)-3H-imidazo[4,5-b]pyridine-6-carboxamide formate], the inhibition at 10 µM is 99%.

Regarding `Cn1c(Nc2c(Cl)cccc2Cl)nc2cc(C(=O)NC3CCC(C(C)(C)C)CC3)cnc21` (stereo not drawn) [Example 393, N-(4-tert-Butylcyclohexyl)-2-(2,6-dichlorophenylamino)-3-methyl-3H-imidazo[4,5-b]pyridine-6-carboxamide], the inhibition at 10 µM was found to be 99%.

For `CC(C)[C@H]1CC[C@H](NC(=O)c2cnc3[nH]c(Nc4c(Cl)cccc4Cl)nc3c2)CC1` [Example 394, 2-(2,6-Dichlorophenylamino)-N-((1r,4r)-4-isopropylcyclohexyl)-3H-imidazo[4,5-b]pyridine-6-carboxamide], the inhibition at 10 µM was 100%.

For the compound `CC(C)[C@H]1CC[C@H](NC(=O)c2cnc3c(c2)nc(Nc2c(Cl)cccc2Cl)n3C)CC1` [Example 400, 2-(2,6-Dichlorophenylamino)-N-((1r,4r)-4-isopropylcyclohexyl)-3-methyl-3H-imidazo[4,5-b]pyridine-6-carboxamide], the inhibition at 10 µM turned out to be 97%.

As for `O=C(Nc1ccc(Br)cc1)c1cnc2[nH]c(Nc3c(Cl)cccc3Cl)nc2c1` [Example 401, N-(4-Bromophenyl)-2-(2,6-dichlorophenylamino)-3H-imidazo[4,5-b]pyridine-6-carboxamide], the inhibition at 10 µM turned out to be 100%.

As to `CCCCCCCCNC(=O)c1cnc2c(c1)nc(Nc1c(Cl)cccc1Cl)n2C` [Example 403, 2-(2,6-Dichlorophenylamino)-3-methyl-N-octyl-3H-imidazo[4,5-b]pyridine-6-carboxamide], the inhibition at 10 µM was determined as 100%.

Turning to `CCCCCC[C@@H](C)NC(=O)c1cnc2c(c1)nc(Nc1c(Cl)cccc1Cl)n2C` [Example 411, (R)-2-(2,6-Dichlorophenylamino)-3-methyl-N-(oct-2-yl)-3H-imidazo[4,5-b]pyridine-6-carboxamide], the inhibition at 10 µM was found to be 100%.

In the case of `CC1(C)CCC(NC(=O)c2cnc3c(c2)nc(Nc2c(Cl)cccc2Cl)n3Cc2ccccc2)CC1` [Example 413, 3-Benzyl-2-(2,6-dichlorophenylamino)-N-(4,4-dimethylcyclohexyl)-3H-imidazo[4,5-b]pyridine-6-carboxamide], the inhibition at 10 µM amounted to 100%.

`CC1(C)CCC(NC(=O)c2cnc3[nH]c(Nc4c(Cl)cccc4Cl)nc3c2)CC1` [Example 429, 2-(2,6-Dichlorophenylamino)-N-(4,4-dimethylcyclohexyl)-3H-imidazo[4,5-b]pyridine-6-carboxamide]: the inhibition at 10 µM came out at 97%.

Regarding `CCC1CCC(NC(=O)c2cnc3c(c2)nc(Nc2c(Cl)cccc2Cl)n3C)CC1` (stereo not drawn) [Example 438, 2-(2,6-Dichlorophenylamino)-N-(4-ethylcyclohexyl)-3-methyl-3H-imidazo[4,5-b]pyridine-6-carboxamide], the inhibition at 10 µM is 100%.

In the case of `CCCCCCNC(=O)c1cnc2c(c1)nc(Nc1c(Cl)cccc1Cl)n2C` [Example 439, 2-(2,6-Dichlorophenylamino)-N-hexyl-3-methyl-3H-imidazo[4,5-b]pyridine-6-carboxamide], the inhibition at 10 µM amounted to 91%.

Take `CCCCCCCNC(=O)c1cnc2c(c1)nc(Nc1c(Cl)cccc1Cl)n2C` [Example 448, 2-(2,6-Dichlorophenylamino)-N-heptyl-3-methyl-3H-imidazo[4,5-b]pyridine-6-carboxamide]: the inhibition at 10 µM turned out to be 100%.

`CCCCC[C@@H](C)NC(=O)c1cnc2c(c1)nc(Nc1c(Cl)cccc1Cl)n2C` [Example 449, (R)-2-(2,6-Dichlorophenylamino)-N-(hept-2-yl)-3-methyl-3H-imidazo[4,5-b]pyridine-6-carboxamide]: the inhibition at 10 µM amounted to 98%.

Regarding `Cn1c(Nc2c(Cl)cccc2Cl)nc2cc(C(=O)N[C@H]3CC[C@H](C)CC3)cnc21` [Example 453, 2-(2,6-Dichlorophenylamino)-3-methyl-N-((1r,4r)-4-methylcyclohexyl)-3H-imidazo[4,5-b]pyridine-6-carboxamide], the inhibition at 10 µM was 98%.

For `Cn1c(Nc2c(Cl)cccc2Cl)nc2cc(C(=O)NC3CCCC(C)(C)C3)cnc21` (stereo not drawn) [Example 454, 2-(2,6-Dichlorophenylamino)-N-(3,3-dimethylcyclohexyl)-3-methyl-3H-imidazo[4,5-b]pyridine-6-carboxamide], the inhibition at 10 µM was determined as 99%.

Take `O=C(N[C@H]1CC[C@H](C(F)(F)F)CC1)c1cnc2[nH]c(Nc3c(Cl)cccc3Cl)nc2c1` [Example 459, 2-(2,6-Dichlorophenylamino)-N-((1r,4r)-4-trifluoromethyl-cyclohexyl)-3H-imidazo[4,5-b]pyridine-6-carboxamide]: the inhibition at 10 µM was found to be 100%.

Regarding `Cn1c(Nc2c(Cl)cccc2Cl)nc2cc(C(=O)Nc3ccc(Br)cc3)cnc21` [Example 463, N-(4-Bromophenyl)-2-(2,6-dichlorophenylamino)-3-methyl-3H-imidazo[4,5-b]pyridine-6-carboxamide], the inhibition at 10 µM was found to be 97%.

On to `CC1(C)CCC(NC(=O)c2cnc3[nH]c(Nc4c(F)cccc4Cl)nc3c2)CC1` [Example 466, 2-(2-Chloro-6-fluorophenylamino)-N-(4,4-dimethylcyclohexyl)-3H-imidazo[4,5-b]pyridine-6-carboxamide], for which the inhibition at 10 µM is 100%.

As to `Cn1c(Nc2c(Cl)cccc2Cl)nc2cc(C(=O)NCc3ccccc3C(F)(F)F)cnc21` [Example 468, 2-(2,6-Dichlorophenylamino)-3-methyl-N-(2-trifluoromethyl-benzyl)-3H-imidazo[4,5-b]pyridine-6-carboxamide], the inhibition at 10 µM worked out at 98%.

In the case of `CC1(C)CCCC(NC(=O)c2cnc3[nH]c(Nc4c(Cl)cccc4Cl)nc3c2)C1` (stereo not drawn) [Example 469, 2-(2,6-Dichlorophenylamino)-N-(3,3-dimethylcyclohexyl)-3H-imidazo[4,5-b]pyridine-6-carboxamide], the inhibition at 10 µM was 100%.

In general, inhibition refers to the drop in the measured response relative to a control, in per cent.
